The values that follow are results of earlier work, collected in US20110223258A1 (priority 2008, published 2011).

The conditions of the data set: aqueous solution.

Consider `O=P([O-])(O)O.O=P([O-])(O)O.O=P([O-])(O)O.[Fe+3]` [Fe(H2PO4)3, iron(III) dihydrogen phosphate], for which the Stability in solution entry is recorded as “decomposes in the solution as a result of hydrolysis”.
